Reference: publication PMC7938888, “Antidepressant drugs act by directly binding to TRKB neurotrophin receptors” (Cell, 2021)

Columns and labels:
GFP-TRKB = target: T1, GFP-TRKB (Mus musculus, UniProt P15209); experiment: Microscale thermophoresis (MST) in lysates of GFP-TRKB expressing HEK293T cells; format: binding; conditions: CHOL 10–100 μM, 15 min, HEK293T cell lysates; read-out: affinity of direct interaction with GFP-TRKB (MST)
T1 construct: wild-type GFP-tagged full length TRKB or the GFP-tagged Y433F TRKB mutant; host or cells: HEK293T
Description: Microscale Thermophoresis - MST - experiments were performed using Monolith NT.115 (Blue/Red) instrument (NanoTemper Technologies GmbH, Germany). The cell lysates of HEK293T cells expressing GFP-TRKB were used as a source of fluorescently labeled TRKB. HEK293T cells were transfected with GFP-fused TRKB as described and lysed 24h after transfection. […] The lysates of non-transfected HEK293T cells were used to evaluate background fluorescence, which appeared to be undetectable in current MST set up. […] The measurements were done in premium coated capillaries (NanoTemper Technologies GmbH, MO-K025) using LED source with 470nm and 50% infrared-laser power at 25°C. Hill model was used to evaluate binding affinity, each data point represents mean ΔFnorm values from four independent experiments. The bound fraction of the GFP-TRKB was determined and the fitting was performed using the Hill model method incorporated by the MO Affinity Analysis v2.3 software (NanoTemper Technologies).

[1] = test system: TRKB autophosphorylation (TRKB:pY); experiment: TRKB:pY ELISA in cultured cortical cells; format: cell-based, rat; conditions: for effect on TRKB phosphorylation (pTRKB) by BDNF: BDNF 10 ng/mL, primary cortical neurons
Description: (§1) The TRKB:pY (phosphorylated TRKB), TRKB:PLC-γ1, PLC-γ1:pTRKB.Y816 interactions and were determined by ELISA, based on the general method described in literature ([Antila et al., 2014]; [Fred et al., 2019]), with minor adjustments. Briefly, white 96-well plates (OptiPlate 96F-HB, Perkin Elmer) were coated with capturing anti-TRKB or PLC-γ1 antibody (1:1000) in carbonate buffer (pH = 9.8) overnight (ON) at 4°C. Following a blocking step with 2%BSA in TBS-T (2 h, RT), samples were incubated ON at 4°C. The incubation with antibody against pTRKB.Y816, PLC-γ1 or pY (1:2000, ON, 4°C) was followed by HRP-conjugated anti-Rb IgG (1:5000, 2h, RT) or HRP-conjugated streptavidin (1:10000, 2h, RT). Finally, the chemiluminescent signal generated by the reaction with ECL was analyzed in a plate reader (Varioskan Flash, Thermo Scientific).

TRKA:PLC-γ1 coupling = experiment: TRKA:PLC-γ1 interaction ELISA in MG87 cells expressing TRKA; format: cell-based, mouse
E18 cortical cells = experiment: Cell viability (CellTiterGlo) of cortical cells; format: cell-based, rat; conditions: pravastatin 2 μM/5 days; CHOL 20 μM or BDNF 10 ng/ml, 5 days
Description: The cell viability assay was performed using CellTiterGlo (#G7571; Promega) according to manufacturer’s instructions. Briefly, equal amounts of medium and the mixture of regents A and B were added to the E18 cortical cells (DIV8) cultivated in clear bottom 96-well plates and incubated for 40min. The luminescence was analyzed in a plate reader.

TRKB = TRKB (Mus musculus, UniProt P15209); experiment: Cell-free ligand binding assay on immobilised TRKB from HEK293T lysates; parameters: wild-type GFP-tagged full length TRKB or the GFP-tagged Y433F TRKB mutant; host or cells: HEK293T; conditions: for displacement of biotinylated FLX from TRKB: biotinylated FLX 1 μM
TRKB.T1ΔEC = experiment: Cell-free ligand binding assay, TRKB deletion construct; conditions: construct with TMD and short juxtamembrane sequences only
TRKB:PLC-γ1 interaction = TRKB:PLC-γ1 interaction ELISA in cortical cells; format: cell-based, rat; conditions: rat cortical cells
Summary of the method: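 Sandwich ELISA on cultured cortical cell lysates: plates coated with anti-TRKB or anti-PLC-γ1 capture antibody, samples bound overnight at 4°C, then detected with anti-pY or anti-PLC-γ1 antibody plus HRP-conjugated secondary or streptavidin. Read-out is ECL chemiluminescence.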

pTRKB.Y816 = format: cell-based, rat; conditions: 10 μM/15 min
Description: as §1
The levels of total and phosphorylated TRKB at Y515 or Y816 in MG87.TRKB cells, challenged with BDNF, as well as the levels of PLCg1 and pTRKB.Y816 were measured by western-blotting ([Rantamäki et al., 2007]).

[2] = test system: GluR1 subunit of AMPA receptors; experiment: Surface GluR1 ELISA in rat cortical cells; format: cell-based
Description: (§2) Briefly, the MG87.TRKB cells or primary cortical cells from rat or mouse embryos, cultivated in clear bottom 96-well plates (ViewPlate 96, Perkin Elmer), were washed with ice-cold PBS and fixed with 100μl of 4% PFA per well. […] Following washing, the samples were incubated with HRP-conjugated anti-goat or anti-rabbit IgG (1:5000 in blocking buffer) for 1h at RT. The cells were washed 4x with 200μl of PBS for 10 min each. Finally, the chemiluminescent signal generated by reaction with ECL was analyzed in a plate reader.

[3] = test system: GluR1 subunit of AMPA receptors; experiment: Surface GluR1 ELISA in cortical cells of TRKB.Y433F mice; format: cell-based, mouse
Description: as §2

mice [4] = experiment: Forced swimming test (FST); format: in vivo, mouse; conditions: FLX 15 mg/kg for 21 days, KET 10 mg/kg i.p. 2 h before
Description: Forced swimming test: animals (adult male and female mice, 18-22 weeks old) were placed in 5l glass beaker cylinders (19cm diameter, with 20cm water column) for 6min. The immobility was assessed in the last 4min of the session ([Diniz et al., 2018]). The water was changed between each test. After swimming, animals were towel-dried and kept in a warmed cage before returning to their home cages. Test was videotaped and analyzed by a trained observer blind to treatment.

mice [5] = experiment: Contextual fear conditioning and extinction; format: in vivo, mouse
Description: Contextual fear conditioning: this test was modified from previous studies ([Karpova et al., 2011]). Briefly, adult male and female mice (18-22 weeks old) were conditioned to 5 scrambled foot shocks (0.6mA/2 s) during the 8 min session (arena: 23 × 23 × 35cm) under constant illumination (100 lux). During the extinction trials, the animals were exposed to the same context where the shocks were delivered and the time spent in freezing during the 8 min session was automatically determined by the software (TSE Systems, Germany).

TRKB.Y433F = target: T2, TRKB.Y433F (Mus musculus, UniProt P15209, Y433F); experiment: Cell-free ligand binding assay, TRKB.Y433F mutant; conditions: TRKB.Y433F; read-out: binding affinity of BDNF
T2 construct: wild-type GFP-tagged full length TRKB or the GFP-tagged Y433F TRKB mutant; host or cells: HEK293T
Description: The cell-free assays (binding assays) were performed in white 96-well plates, based on the protocol used for western-blotting or ELISA ([Baeza-Raja et al., 2016]; [Das et al., 2015]). The plates were precoated with anti-GFP, anti-FLAG, anti-TRK or anti-TRKB antibody (1:1000) in carbonate buffer (pH 9.8), ON at 4°C. Following blocking with 3% BSA in PBS buffer (2 h at RT), 120 ug of total protein from each sample (of lysates from HEK293T cells transfected to overexpress GFP-TRKB.wt or GFP-TRKB.Y433F) were added and incubated overnight at 4°C under agitation. […] The luminescence was determined via HRP-conjugated streptavidin (1:10000, 1h, RT) activity reaction with ECL by a plate reader. The luminescence signal from blank wells (containing all the reagents but the sample lystates, substituted by the blocking buffer) was used as background. The specific signal was then calculated by subtracting the values of blank wells from the values of the samples with matched concentration of the biotinylated ligand. For Figure 2E, the precipitated TRKB.wt or Y433F was incubated with tritiated imipramine (0-30μM) and the radioactive emission of the ligand was determined by scintillation (OptiPhase Supermix cocktail: #1200-439; MicroBeta2, Perkin-Elmer). The scintillation signal from blank wells was used as background, and the specific signal was then calculated by subtracting the values of blank wells from the values of the samples with matched concentration of the radioactive ligand.

[6] = wild-type mice, FLX 15 mg/kg for 2 weeks, KET 10 mg/kg i.p. after conditioning and 2 h before each extinction trial

Chain of TRKB (P15209 32-821): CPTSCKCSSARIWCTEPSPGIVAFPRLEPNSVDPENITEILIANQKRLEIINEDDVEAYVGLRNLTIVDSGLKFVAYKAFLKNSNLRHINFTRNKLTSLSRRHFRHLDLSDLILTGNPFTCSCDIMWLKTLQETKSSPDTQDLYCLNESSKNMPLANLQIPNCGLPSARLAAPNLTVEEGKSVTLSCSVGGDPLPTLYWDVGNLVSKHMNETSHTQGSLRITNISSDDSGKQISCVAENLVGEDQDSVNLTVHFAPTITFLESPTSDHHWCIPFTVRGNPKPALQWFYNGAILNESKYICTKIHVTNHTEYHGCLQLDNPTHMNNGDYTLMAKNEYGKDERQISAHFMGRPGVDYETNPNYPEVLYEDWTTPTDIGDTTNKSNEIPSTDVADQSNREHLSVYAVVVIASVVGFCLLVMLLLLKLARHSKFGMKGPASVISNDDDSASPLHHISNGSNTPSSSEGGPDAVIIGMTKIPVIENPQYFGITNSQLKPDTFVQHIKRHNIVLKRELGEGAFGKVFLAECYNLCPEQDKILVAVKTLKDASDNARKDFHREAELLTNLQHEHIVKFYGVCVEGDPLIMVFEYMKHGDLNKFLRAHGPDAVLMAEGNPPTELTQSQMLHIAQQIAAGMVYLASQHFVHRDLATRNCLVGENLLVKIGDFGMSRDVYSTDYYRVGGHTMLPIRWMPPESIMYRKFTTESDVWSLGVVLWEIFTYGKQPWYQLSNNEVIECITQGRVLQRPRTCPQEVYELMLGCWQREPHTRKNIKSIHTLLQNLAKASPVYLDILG
T1 sequence (P15209 32-821): as above
T2 sequence (P15209 32-821 Y433F): as the sequence (P15209 32-821) above, with Y402F counted along it

| Molecule | rescue of pravastatin-reduced neuronal survival (E18 cortical cells) | TRKB interaction with PLC-γ1 (TRKB:PLC-γ1 interaction) | pTRKB at Y816 (pTRKB.Y816) | immobility in the FST (mice [4]; TRKB.Y433F mice) | immobility in the FST (mice [4]; wild-type mice) | extinction of conditioned fear (mice [5]; TRKB.Y433F mice) | extinction of conditioned fear (mice [5]; [6]) | displacement of biotinylated FLX from TRKB (TRKB) | other results |
| --- | --- | --- | --- | --- | --- | --- | --- | --- | --- |
| CC(C)CCC[C@@H](C)[C@H]1CC[C@H]2[C@@H]3CC=C4C[C@@H](O)CC[C@]4(C)[C@H]3CC[C@]12C [CHOL, cholesterol] | rescued |  |  |  |  |  |  |  | Kd (GFP-TRKB): ~20 µM; effect on TRKB phosphorylation (pTRKB) by BDNF ([1]; CHOL 20 μM): enhanced TRKB phosphorylation; effect on TRKB phosphorylation (pTRKB) by BDNF ([1]; CHOL 50–100 μM): suppressed the effects of BDNF; cholesterol-induced TRKA:PLC-γ1 coupling (TRKA:PLC-γ1 coupling): Lack of effect; effect on interaction of biotinylated FLX and R,R-HNK with TRKB (TRKB): increased the interaction of these compounds with TRKB |
| CNCCC(Oc1ccc(C(F)(F)F)cc1)c1ccccc1 (centres unmarked) [FLX, fluoxetine] |  | increased TRKB interaction with PLC-γ1 | enhanced pTRKB at Y816 | ineffective | significantly reduced immobility | no increase in fear extinction | promoted extinction of conditioned fear |  | binding to TRKB.T1ΔEC (TRKB.T1ΔEC): robust binding; rescue of BDNF-induced pTRKB response under high CHOL ([1]; cholesterol 50 μM, drug 10 μM 15 min, BDNF 10 ng/ml 15 min): partially rescued; cell surface localization of GluR1 subunits of AMPA receptors [2]: increased cell surface localization of GluR1 subunits; increase in surface GluR1 in neurons from TRKB.Y433F mutant mice [3]: prevented; extinction of conditioned fear (mice [5]; pravastatin-FLX co-treated mice): no increase in fear extinction |
| CNC1(c2ccccc2Cl)CCCCC1=O (centres unmarked) [KET, ketamine] |  | increased TRKB interaction with PLC-γ1 | enhanced pTRKB at Y816 | ineffective | significantly reduced immobility | no increase in fear extinction | promoted extinction of conditioned fear | readily displaced | Ki (TRKB): 12.3 µM |
| BDNF: brain-derived neurotrophic factor, TRKB ligand (protein, UniProt P23560 19-247, looked up) Neurotrophic factor BDNF …: APMKEANIRGQGGLAYPGVRTHGTLESVNGPKAGSRGLTSLADTFEHVIEELLDEDQKVRPNEENNKDADLYTSRVMLSSQVPLEPPLLFLLEEYKNYLDAANMSMRVRRHSDPARRGELSVCDSISEWVTAADKKTAVDMSGGTVTVLEKVPVSKGQLKQYFYETKCNPMGYTKEGCRGIDKRHWNSQCRTTQSYVRALTMDSKKRIGWRFIRIDTSCVCTLTIKRGR | not by BDNF |  |  |  |  |  |  | failed to displace | Kd (TRKB.Y433F): 2.9 pM; Kd (TRKB; TRKB.wt, read-out: binding affinity of BDNF): 3.1 pM |
